In patent US20080200337A1, “Mixed herbicide compositions for paddy field” (Bayer CropScience, priority 2007, published 2008):

What was measured:
Type in all cases: in vivo
Cyperus iria L. = experiment: Weed control by spray treatment at 1.5 to 3.0 leaf-stage (Test Example 3); details: spray at 1.5 to 3.0 leaf-stage, 4 weeks later
Procedure: (§1) Carrier: 5 parts by weight of acetone
(§2) Surfactant: one part by weight of benzyloxy polyglycol ether.
(§3) Above described carrier and surfactant are mixed with one part by weight of the active compound ((a) ingredient and (b) ingredient) and the resulting preparation is then diluted with water to obtain given amount of the test drug (the formulation).
(§4) In a greenhouse, seeds of rice (var.: Nipponbare and RD23) and weeds (Echinochloa oryzicola Vasing, Echinochloa cruss-galli, Leptochloa chinensis, Cyperus difformis L., Cyperus iria L., annual broad-leaved weeds (Monochoria vaginalis Presl, Lindernia procumbens Philcox, Lindernia dubia L. Penn., Rotala indica Koehne, Elatine triandra Schk, Ammannia multiflora Roxb. and the like)) were sown in a 500 cm^2 pot filled with paddy field soil and covered with soil. Water was added to the pot (a depth of 0 cm) to be a wet condition, and each test plant was grown in the greenhouse to 1.5 to 3.0 leaf-stage, after then a prescribed, diluted solution of the formulation of each active compound and each herbicidal compound in the table were separately or simultaneously sprayed over the pots with plants. At 3 days after the treatment, the water depth of 3 cm was maintained, and 4 weeks later, herbicidal effect was then examined. In the assessment of the herbicidal effect and the phytotoxicity, 100% refers to complete death and 0% refers to no effect or no phytotoxicity.

[1] = system: annual broad-leaved weeds; experiment: as above; details: spray at 1.5 to 3.0 leaf-stage, 4 weeks later
Procedure: as §1, §2, §3, §4

Cyperus difformis L. = experiment: as above; details: spray at 1.5 to 3.0 leaf-stage, 4 weeks later
Procedure: as §1, §2, §3, §4

[2] = system: Monochoria vaginalis Presl; experiment: as above; details: spray at 1.5 to 3.0 leaf-stage, 4 weeks later
Procedure: as §1, §2, §3, §4

Echinochloa cruss-galli = experiment: as above; details: spray at 1.5 to 3.0 leaf-stage, 4 weeks later
Procedure: as §1, §2, §3, §4

[3] = system: Echinochloa oryzicola Vasing; experiment: as above; details: spray at 1.5 to 3.0 leaf-stage, 4 weeks later
Procedure: as §1, §2, §3, §4

Leptochloa chinensis = experiment: as above; details: spray at 1.5 to 3.0 leaf-stage, 4 weeks later
Procedure: as §1, §2, §3, §4

[4] = system: submerged direct sown paddy (RD-23); experiment: Phytotoxicity, spray treatment at 1.5 to 3.0 leaf-stage (Test Example 3); details: spray at 1.5 to 3.0 leaf-stage, 4 weeks later, RD-23
Procedure: as §1, §2, §3, §4

[5] = system: submerged direct sown paddy (Nipponbare); experiment: as above; details: spray at 1.5 to 3.0 leaf-stage, 4 weeks later
Procedure: as §1, §2, §3, §4

COc1nc(OC)nc(C(=O)c2cccc(Cl)c2N(C)S(=O)(=O)C(F)F)n1 [(a-2)]
Herbicidal effect (%) CYPIR (Cyperus iria L.; 30 g ai/ha): 100% | Herbicidal effect (%) CYPIR (Cyperus iria L.; 50 g ai/ha): 100% | Herbicidal effect (%) BBBBB ([1]; 30 g ai/ha): 70% | Herbicidal effect (%) BBBBB ([1]; 50 g ai/ha): 85% | Herbicidal effect (%) CYPDI (Cyperus difformis L.; 30 g ai/ha): 100% | Herbicidal effect (%) CYPDI (Cyperus difformis L.; 50 g ai/ha): 100% | Herbicidal effect (%) MOOVP ([2]; 30 g ai/ha): 40% | Herbicidal effect (%) MOOVP ([2]; 50 g ai/ha): 65% | Herbicidal effect (%) ECHCG (Echinochloa cruss-galli; 30 g ai/ha): 100% | Herbicidal effect (%) ECHCG (Echinochloa cruss-galli; 50 g ai/ha): 100% | Herbicidal effect (%) ECHOR ([3]; 30 g ai/ha): 100% | Herbicidal effect (%) ECHOR ([3]; 50 g ai/ha): 100% | Herbicidal effect (%) LEFCH (Leptochloa chinensis; 30 g ai/ha): 65% | Herbicidal effect (%) LEFCH (Leptochloa chinensis; 50 g ai/ha): 65% | Phytotoxicity (%) ORYSW*^2 ([4]; 30 g ai/ha): 5% | Phytotoxicity (%) ORYSW*^2 ([4]; 50 g ai/ha): 10% | Phytotoxicity (%) ORYSW*^1 ([5]; 30 g ai/ha): 5% | Phytotoxicity (%) ORYSW*^1 ([5]; 50 g ai/ha): 10%

COc1nc(OC)nc(C(O)c2cccc(Cl)c2N(C)S(=O)(=O)C(F)F)n1 (stereo not drawn) [(a-4)]
Herbicidal effect (%) CYPIR (Cyperus iria L.; 30 g ai/ha): 100% | Herbicidal effect (%) CYPIR (Cyperus iria L.; 50 g ai/ha): 100% | Herbicidal effect (%) BBBBB ([1]; 30 g ai/ha): 65% | Herbicidal effect (%) BBBBB ([1]; 50 g ai/ha): 75% | Herbicidal effect (%) CYPDI (Cyperus difformis L.; 30 g ai/ha): 100% | Herbicidal effect (%) CYPDI (Cyperus difformis L.; 50 g ai/ha): 100% | Herbicidal effect (%) MOOVP ([2]; 30 g ai/ha): 25% | Herbicidal effect (%) MOOVP ([2]; 50 g ai/ha): 25% | Herbicidal effect (%) ECHCG (Echinochloa cruss-galli; 30 g ai/ha): 100% | Herbicidal effect (%) ECHCG (Echinochloa cruss-galli; 50 g ai/ha): 100% | Herbicidal effect (%) ECHOR ([3]; 30 g ai/ha): 100% | Herbicidal effect (%) ECHOR ([3]; 50 g ai/ha): 100% | Herbicidal effect (%) LEFCH (Leptochloa chinensis; 30 g ai/ha): 50% | Herbicidal effect (%) LEFCH (Leptochloa chinensis; 50 g ai/ha): 50% | Phytotoxicity (%) ORYSW*^2 ([4]; 30 g ai/ha): 0% | Phytotoxicity (%) ORYSW*^2 ([4]; 50 g ai/ha): 0% | Phytotoxicity (%) ORYSW*^1 ([5]; 30 g ai/ha): 0% | Phytotoxicity (%) ORYSW*^1 ([5]; 50 g ai/ha): 5%
